By solubility is commonly meant the concentration that dissolves in the medium under given conditions.

The data set in a line: Drug solubility in coconut oil, CAOM and related dissolving agents. It counts as physicochemical.

Converted amounts (≈) assume the structure as drawn.

In the case of `COc1cc(/C=C/C(=O)CC(=O)/C=C/c2ccc(O)c(OC)c2)ccc1O` [curcumin], the “solubility of curcumin in CAOM relative to coconut oil” value (in CAOM versus coconut oil) was 6 times. Also, the solubility at 2 days (oil or lipid, thermodynamic from solid, in coconut oil, room temperature, mean±SD n=3, read-out: solubility of curcumin in coconut oil) was determined as 2440 ± 240 µg/mL (≈ 6.62 mM).
